BindingDB's records for doi:10.1021/jm00039a015 (Abbott Laboratories, 1994)
Structures can show the parent of a compound that is named as a salt.

Target: Platelet-activating factor receptor (Oryctolagus cuniculus)
Assay: Antagonist activity against platelet activating factor (PAF) receptor in rabbit platelet membranes using [3H]C18-PAF as radioligand

**Q.** `COc1ccc2c(C(=O)[C@@H]3CSC(c4cccnc4)N3)c[nH]c2c1` (stereo partly drawn) [(6-Methoxy-1H-indol-3-yl)-((R)-2-pyridin-3-yl-thiazolidin-4-yl)-methanone] was tested. Which Ki did it give?
**A.** Its Ki is 9.5 nM.

**Q.** How did the Ki turn out when `CN(C(=O)n1cc(C(=O)[C@@H]2CSC(c3cccnc3)N2)c2ccccc21)c1ccccc1` (stereo partly drawn) [3-((R)-2-Pyridin-3-yl-thiazolidine-4-carbonyl)-indole-1-carboxylic acid methyl-phenyl-amide] was run?
**A.** Its Ki is 31 nM.

**Q.** Which Ki does the source give for `O=C(c1ccccc1)c1ccc2ccn(C(=O)[C@@H]3CSC(c4cccnc4)N3)c2c1` (stereo partly drawn) [(6-Benzoyl-indol-1-yl)-((R)-2-pyridin-3-yl-thiazolidin-4-yl)-methanone] here?
**A.** Its Ki is 95 nM.

**Q.** Which Ki does the source give for `CCS(=O)(=O)n1cc(C(=O)[C@@H]2CSC(c3cccnc3)N2)c2ccc(OCc3ccccc3)cc21` (stereo partly drawn) [(6-Benzyloxy-1-ethanesulfonyl-1H-indol-3-yl)-((R)-2-pyridin-3-yl-thiazolidin-4-yl)-methanone] here?
**A.** The Ki was 8.1 nM.

**Q.** `CN(C)C(=O)n1cc(C(=O)[C@@H]2CSC(c3cccnc3)N2)c2ccccc21` (stereo partly drawn) [3-((R)-2-Pyridin-3-yl-thiazolidine-4-carbonyl)-indole-1-carboxylic acid dimethylamide] was tested. Which Ki did it give?
**A.** The Ki was 0.8 nM.

**Q.** `CC(C)(C)OC(=O)n1cc(C(=O)[C@@H]2CSC(c3cccnc3)N2)c2ccc(OCc3ccccc3)cc21` (stereo partly drawn) [6-Benzyloxy-3-((R)-2-pyridin-3-yl-thiazolidine-4-carbonyl)-indole-1-carboxylic acid tert-butyl ester] was tested. Which Ki did it give?
**A.** Its Ki is 1 nM.

**Q.** `O=C(c1ccccc1)c1cccc(NC(=O)[C@@H]2CSC(c3cccnc3)N2)c1` (stereo partly drawn) [(R)-2-Pyridin-3-yl-thiazolidine-4-carboxylic acid (3-benzoyl-phenyl)-amide] was tested. Which Ki did it give?
**A.** The Ki was 7.7 nM.

**Q.** `O=C(c1c[nH]c2cc(-c3ccccc3)ccc12)[C@@H]1CSC(c2cccnc2)N1` (stereo partly drawn) [(6-Phenyl-1H-indol-3-yl)-((R)-2-pyridin-3-yl-thiazolidin-4-yl)-methanone] was tested. Which Ki did it give?
**A.** Its Ki is 14 nM.

**Q.** How did the Ki turn out when `CN(C)C(=O)n1cc(C(=O)[C@@H]2CSC(c3cccnc3)N2)c2ccc(Br)cc21` (stereo partly drawn) [6-Bromo-3-((R)-2-pyridin-3-yl-thiazolidine-4-carbonyl)-indole-1-carboxylic acid dimethylamide] was run?
**A.** The Ki was 0.6 nM.

**Q.** With `COCCOc1ccc2c(C(=O)[C@@H]3CSC(c4cccnc4)N3)cn(C(=O)N(C)C)c2c1` (stereo partly drawn) [6-(2-Methoxy-ethoxy)-3-((R)-2-pyridin-3-yl-thiazolidine-4-carbonyl)-indole-1-carboxylic acid dimethylamide] as the molecule, how does the Ki read?
**A.** Its Ki is 3 nM.

**Q.** With `Cc1[nH]c2cc(OCc3ccccc3)ccc2c1C(=O)[C@@H]1CSC(c2cccnc2)N1` (stereo partly drawn) [(6-Benzyloxy-2-methyl-1H-indol-3-yl)-((R)-2-pyridin-3-yl-thiazolidin-4-yl)-methanone] as the molecule, how does the Ki read?
**A.** Its Ki is 16 nM.

**Q.** How did the Ki turn out when `O=C(O)Cn1cc(C(=O)[C@@H]2CSC(c3cccnc3)N2)c2ccccc21` (stereo partly specified) [[3-(2-Pyridin-3-yl-thiazolidine-4-carbonyl)-indol-1-yl]-acetic acid] was run?
**A.** The Ki was 30 nM.

**Q.** For `O=C(c1c[nH]c2cc(F)ccc12)[C@@H]1CSC(c2cccnc2)N1` (stereo partly drawn) [(6-Fluoro-1H-indol-3-yl)-((R)-2-pyridin-3-yl-thiazolidin-4-yl)-methanone], which Ki is on record?
**A.** The Ki was 5.6 nM.

**Q.** With `O=C(c1c[nH]c2cc(Oc3ccc(F)cc3)ccc12)[C@@H]1CSC(c2cccnc2)N1` (stereo partly drawn) [[6-(4-Fluoro-phenoxy)-1H-indol-3-yl]-((R)-2-pyridin-3-yl-thiazolidin-4-yl)-methanone] as the molecule, how does the Ki read?
**A.** Its Ki is 1.9 nM.

**Q.** For `CC(C)(C)OC(=O)N1C(c2cccnc2)SC[C@H]1C(=O)c1c[nH]c2ccccc12` (stereo partly drawn) [(R)-4-(1H-Indole-3-carbonyl)-2-pyridin-3-yl-thiazolidine-3-carboxylic acid tert-butyl ester], which Ki is on record?
**A.** The Ki was 9750 nM.

**Q.** For `COc1cc2c(C(=O)[C@@H]3CSC(c4cccnc4)N3)cn(C(=O)N(C)C)c2cc1OC` (stereo partly drawn) [5,6-Dimethoxy-3-((R)-2-pyridin-3-yl-thiazolidine-4-carbonyl)-indole-1-carboxylic acid dimethylamide], which Ki is on record?
**A.** Its Ki is 10 nM.

**Q.** With `O=C(c1cn(C(=O)OCc2ccccc2)c2ccccc12)[C@@H]1CSC(c2cccnc2)N1` (stereo partly drawn) [3-((R)-2-Pyridin-3-yl-thiazolidine-4-carbonyl)-indole-1-carboxylic acid benzyl ester; compound with oxalic acid] as the molecule, how does the Ki read?
**A.** The Ki was 3 nM.

**Q.** With `O=C(c1cn(C(=O)N2CCOCC2)c2cc(OCc3ccccc3)ccc12)[C@@H]1CSC(c2cccnc2)N1` (stereo partly drawn) [[6-Benzyloxy-3-((R)-2-pyridin-3-yl-thiazolidine-4-carbonyl)-indol-1-yl]-morpholin-4-yl-methanone] as the molecule, how does the Ki read?
**A.** Its Ki is 10 nM.

**Q.** How did the Ki turn out when `O=C(c1cn(Cc2ccccc2)c2ccccc12)[C@@H]1CSC(c2cccnc2)N1` (stereo partly drawn) [(1-Benzyl-1H-indol-3-yl)-((R)-2-pyridin-3-yl-thiazolidin-4-yl)-methanone] was run?
**A.** The Ki was 49 nM.

**Q.** With `Cc1c(C(=O)[C@@H]2CSC(c3cccnc3)N2)c2ccccc2n1C(=O)OC(C)(C)C` (stereo partly drawn) [2-Methyl-3-((R)-2-pyridin-3-yl-thiazolidine-4-carbonyl)-indole-1-carboxylic acid tert-butyl ester; compound with oxalic acid] as the molecule, how does the Ki read?
**A.** Its Ki is 9.5 nM.

**Q.** For `CNC(=O)Cn1cc(C(=O)[C@@H]2CSC(c3cccnc3)N2)c2ccccc21` (stereo partly drawn) [N-Methyl-2-[3-((R)-2-pyridin-3-yl-thiazolidine-4-carbonyl)-indol-1-yl]-acetamide], which Ki is on record?
**A.** The Ki was 2.4 nM.

**Q.** `CC(C)(C)C(=O)n1cc(C(=O)[C@@H]2CSC(c3cccnc3)N2)c2ccccc21` (stereo partly drawn) [2,2-Dimethyl-1-[3-((R)-2-pyridin-3-yl-thiazolidine-4-carbonyl)-indol-1-yl]-propan-1-one] was tested. Which Ki did it give?
**A.** Its Ki is 8.8 nM.

**Q.** For `O=C(c1cn(CC(F)(F)F)c2ccccc12)[C@@H]1CSC(c2cccnc2)N1` (stereo partly drawn) [((R)-2-Pyridin-3-yl-thiazolidin-4-yl)-[1-(2,2,2-trifluoro-ethyl)-1H-indol-3-yl]-methanone], which Ki is on record?
**A.** The Ki was 21 nM.

**Q.** For `CCN(CC)C(=O)n1cc(C(=O)[C@@H]2CSC(c3cccnc3)N2)c2ccccc21` (stereo partly drawn) [3-((R)-2-Pyridin-3-yl-thiazolidine-4-carbonyl)-indole-1-carboxylic acid diethylamide], which Ki is on record?
**A.** Its Ki is 1.4 nM.

**Q.** Which Ki does the source give for `COc1ccc2c(C(=O)[C@@H]3CSC(c4cccnc4)N3)cn(C(=O)OC(C)(C)C)c2c1` (stereo partly drawn) [6-Methoxy-3-((R)-2-pyridin-3-yl-thiazolidine-4-carbonyl)-indole-1-carboxylic acid tert-butyl ester; compound with oxalic acid] here?
**A.** Its Ki is 8.2 nM.

**Q.** `O=C(c1c[nH]c2ccccc12)[C@@H]1CS[C@H](c2cccnc2)N1C(=O)C(F)(F)F` was tested. Which Ki did it give?
**A.** The Ki was 1640 nM.

**Q.** For `O=C(c1cn(C(=O)N2CCOCC2)c2ccccc12)[C@@H]1CSC(c2cccnc2)N1` (stereo partly drawn) [Morpholin-4-yl-[3-((R)-2-pyridin-3-yl-thiazolidine-4-carbonyl)-indol-1-yl]-methanone], which Ki is on record?
**A.** The Ki was 1.5 nM.

**Q.** With `COC(=O)CCn1cc(C(=O)[C@@H]2CSC(c3cccnc3)N2)c2ccccc21` (stereo partly drawn) [3-[3-((R)-2-Pyridin-3-yl-thiazolidine-4-carbonyl)-indol-1-yl]-propionic acid methyl ester] as the molecule, how does the Ki read?
**A.** Its Ki is 4.6 nM.

**Q.** For `O=C(c1c[nH]c2cc(OCc3ccccc3)ccc12)[C@@H]1CSC(c2cccnc2)N1` (stereo partly drawn) [(6-Benzyloxy-1H-indol-3-yl)-((R)-2-pyridin-3-yl-thiazolidin-4-yl)-methanone], which Ki is on record?
**A.** The Ki was 1.6 nM.

**Q.** For `O=C(c1c[nH]c2c(OCc3ccccc3)cccc12)[C@@H]1CSC(c2cccnc2)N1` (stereo partly drawn) [(7-Benzyloxy-1H-indol-3-yl)-((R)-2-pyridin-3-yl-thiazolidin-4-yl)-methanone; TFA], which Ki is on record?
**A.** Its Ki is 1.1 nM.

**Q.** `CN(C)C(=O)n1cc(C(=O)[C@@H]2CSC(c3cccnc3)N2)c2ccc(Oc3ccc(F)cc3)cc21` (stereo partly drawn) [6-(4-Fluoro-phenoxy)-3-((R)-2-pyridin-3-yl-thiazolidine-4-carbonyl)-indole-1-carboxylic acid dimethylamide] was tested. Which Ki did it give?
**A.** The Ki was 2.2 nM.
